Our source for the melting point values is a melting point compilation (Tetko et al.; mined from patent text by program, amines drawn as free bases though some values may be those of a salt).

Structures are written as SMILES. Residues, ends and D or L forms follow the SMILES beside them. *: point of attachment. Bz = O=C(c1ccccc1)*

Turning to `COc1ccc(S(=O)(=O)C(c2cc(F)ccc2F)c2cc(N)ncc2Cl)cc1` (configuration not stated), the melting point (as a rule, the temperature, or range, at which the solid turns liquid) fell in the range of 153 to 155 °C.

As to `CSC(=S)N/N=C/c1ccc(-c2ncn(-c3ccc(OC(F)(F)F)cc3)n2)cc1`, the melting point was in the range of 204 to 206 °C.

`O=Cc1ncn2c1[C@@H]1CCCN1C(=O)c1c(Cl)cccc1-2` gave a melting point of 224 to 225 °C.

Take `C[C@]12CCC(=O)C=C1CCc1cc(Cl)ccc12`: the melting point was in the range of 94 to 96 °C.

In the case of `COc1ccc(C)c(OC(F)C(=O)c2ccccc2)c1` (configuration not stated), the melting point was in the range of 57 to 58 °C.

For the compound `Cc1c(C)c2c(c([N+](=O)[O-])c1C)OC(C)(C)C2`, the melting point lay within 100 to 101 °C.

Regarding `O=C1c2c(cc(O)c(O)c2[N+](=O)[O-])CC1CN1CCOCC1` (configuration not stated), the melting point lay in the range of 193 to 195 °C.

In turn, `Cc1ccc(-c2nc(C(F)(F)F)cn2-c2ccc(S(C)(=O)=O)cc2)nc1` returned a melting point of 196 °C.

`OCCCCc1cc(-c2ccc(C(F)(F)F)cc2)no1` came in with a melting point of 68 to 69 °C.

In turn, `COc1cc2c(cc1OC)C(c1ccccc1)N(C(=O)NCCN1CCCCC1)CC2` (configuration not stated) returned a melting point of 101 to 102 °C.

The compound `Nc1nc(NCCc2ccccc2OCc2ccccc2)nc2nc(-c3ccco3)nn12` gave a melting point of 151 to 153 °C.

Compound `FC(F)(F)c1ccc(-c2cc(C(F)(F)F)n3ncc(C#Cc4cncnc4)c3n2)cc1` gave a melting point of 175 °C.

`NC(=O)NC(Cc1c[nH]c2ccccc12)C(=O)NCc1cc(C(F)(F)F)cc(C(F)(F)F)c1` (configuration not stated) had a melting point of 210 to 212 °C.

For the compound `Cc1nnc(-c2ccnc(NCc3cccnc3)c2)o1`, the melting point lay within 139 to 140 °C.

In turn, `CCOC(=O)Cn1c2ccccc2c2sccc(=O)c21` had a melting point of 163 to 165 °C.

As to `CS(=O)c1ccc(CSc2nnc(-c3ccc4c(c3)CCO4)o2)cc1C(F)(F)F` (configuration not stated), the melting point fell in the range of 177 to 178 °C.

As to `Cc1cc(C[C@H]2NC(=O)O[C@H]2c2ccc(F)cc2)cc(OC(F)(F)C(F)F)c1` (racemic), the melting point is 107 to 108 °C.

In turn, `CCNc1cc(C)nc(Oc2c(C)cc(C)cc2C)c1C` gave a melting point of 115 to 116 °C.

Turning to `O=C(N[C@H]1CC[C@H](CCN2CCN(c3nccc4c3CCO4)CC2)CC1)c1ccc(N2CCOCC2)nc1`, the melting point was found to be 222 °C.

In turn, `COc1cc2oc(=O)c3c(c2cc1OC)CCN(CCN1CC2CCC1CC2)C3` displayed a melting point of 133 to 135 °C.

In turn, `COc1cc2c(cc1OC)C(C)(C)C(/C=C/C(=O)N1CCC(CCCC3CCN(C(=O)/C=C/C4=Cc5cc(OC)c(OC)cc5C4(C)C)CC3)CC1)=C2` registered a melting point of 192 to 194 °C.

Take `Nc1c(Cl)cc(C(O)CNCCCCCCOCCc2ccc(N3CCOCC3)cc2)cc1Cl` (configuration not stated): the melting point was in the range of 102 to 103 °C.

For `CCOCc1nc2c(N)nc3cc(OCc4ccc(C)cc4)ccc3c2n1CC(C)C`, the melting point fell in the range of 209 to 210 °C.

The compound `O=C(Nc1nc2ccccc2o1)C(Cc1ccc(F)cc1)c1ccc(F)cc1F` (configuration not stated) showed a melting point of 178 °C.

For `CCOc1cccc(-c2cc3n(n2)CCc2ccccc2-3)c1`, the melting point fell in the range of 103 to 104 °C.

Turning to `O=S1(=O)NCCc2ccc(Oc3ccccc3)cc21`, the melting point lay within 129 to 132 °C.

In turn, `Cc1ccc(NC(=O)N(C)Cc2cccc3c2C(=O)N(C2CCC(=O)NC2=O)C3=O)cc1C` (configuration not stated) showed a melting point of 202 to 204 °C.

In turn, `O=C(c1ccccc1)c1cccnc1-c1nc(Nc2ccc(Cl)cc2)c2ccccc2n1` had a melting point of 190 to 192 °C.

In turn, `CCCOc1cc(/C=C/C(=O)OCC)n(Cc2ccccc2)n1` returned a melting point of 56 to 57 °C.

Turning to `COc1ccccc1-n1ccc(=N)cc1`, the melting point fell in the range of 121 to 124 °C.

`NS(=O)(=O)c1ccc(CNC(=O)c2cccnc2Oc2cccc(-n3cnnn3)c2)cc1` had a melting point of 72 to 74 °C.

Take `CCc1nn(C(=O)CCCN2CCOCC2)c(CC)c1CCCCCCOc1ccc(OC)cc1Cl`: the melting point is 93 to 95 °C.

`c1ccc2cc(-c3nc(COc4ccc(CCCn5ccnc5)cc4)co3)ccc2c1` registered a melting point of 131 to 132 °C.

In turn, `COC(=O)/C=C/c1cccc(-c2c(CC(=O)Nc3ccc(Cl)cc3C(F)(F)F)c(=O)oc3cc(Cl)c(C)cc23)c1` gave a melting point of 202 to 204 °C.

`O=CC(Nc1ccc2c(c1)OCC(=O)N2)N1CCC(Cc2ccc(F)cc2)CC1` (configuration not stated): the melting point lay in the range of 156 to 161 °C.

As for `CCC#COc1ccc(S(=O)(=O)NC(CSc2ccccn2)C(=O)NO)cc1` (configuration not stated), the melting point fell in the range of 115 to 120 °C.

Take `CCNc1nnc(C(C)(C)C)c(=O)n1N`: the melting point came to 177 °C.

As to `COc1cc(CCBr)cc2c1OCO2`, the melting point lay in the range of 78 to 79 °C.

In turn, `CC(C)[C@H](NC(=O)OCc1ccccc1)C(=O)c1ccc(OCc2ccccc2)cc1` showed a melting point of 75 to 77 °C.

Take `Cn1c(-c2cccs2)nnc1S(C)=O` (configuration not stated): the melting point lay in the range of 105 to 107 °C.

Consider `O=C(Nc1ccc(C(F)(F)F)cc1)C1=NN(c2ccccc2)CC1c1ccc(F)cc1` (configuration not stated), for which the melting point is 184 °C.

Regarding `CCCCC#Cc1nc(N)n2nc(-c3ccco3)nc2n1`, the melting point fell in the range of 188 to 191 °C.

`N#Cc1sccc1[N+](=O)[O-]` returned a melting point of 87 to 88 °C.

`CCCCCCCCCCCCCCCCCCOCCOCCOC(=O)NCc1ccccn1`: the melting point was 61 to 62 °C.

With `CCNC(=O)[C@H](C)NC(=O)[C@H](C)NC(=O)c1ccccc1` (Bz-Ala-Ala-NHEt), the melting point was 237 to 239 °C.

For `CCCOc1ccccc1-c1ncc(NC(C)=O)c(=O)[nH]1`, the melting point is 195 to 197 °C.

`CC(=O)NCCCc1cccc2c1CCO2` registered a melting point of 66 to 67 °C.

In turn, `COc1ccc(C2=NN(Cc3ccc(NC(=O)c4cccnc4)cc3)C(=O)CC2)cc1OC` had a melting point of 184 °C.

Take `CCOC(=O)c1cn(-c2cc(N(C)C(=O)OC(C)(C)C)c(F)cc2F)c2c(C)c(F)c(F)cc2c1=O`: the melting point is 217 to 218 °C.

On to `O=C(OCCc1ccccc1)c1ccc2c(O)c(O)ccc2c1`, for which the melting point lay in the range of 164 to 166 °C.

The compound `c1cnc(NC2CCN(CC3CCc4ccccc4O3)CC2)nc1` (configuration not stated) showed a melting point of 142 °C.

As to `COc1ccccc1-c1cc(F)cc2c1NC(CN)CO2` (configuration not stated), the melting point came to 84 °C.

On to `Cc1sc(-c2ccccc2)nc1COc1ccc(C=O)cn1`, for which the melting point was 120 to 121 °C.

In the case of `COC(=O)C(C)(C)OCc1cc2cc(C(F)(F)F)ccc2n1S(=O)(=O)c1cc(C)cc(C)c1`, the melting point was 132 to 134 °C.

`COc1ccc(C2=CCN(Cc3n[nH]c4c(F)cccc34)CC2)cc1` registered a melting point of 183 to 185 °C.

In turn, `COc1cc(CCC(=O)CC(=O)c2ccc(-c3ccccc3)cc2)ccc1O` displayed a melting point of 118 to 119 °C.

As to `NNc1cc2ccccc2cc1C(=O)O`, the melting point was above 300 °C.

As to `Cc1ccc(-c2c(C3CCN(C)CC3)[nH]c(=O)c3ccccc23)cc1`, the melting point lay in the range of 244 to 246 °C.

In turn, `Cn1c(C(N)=O)c(-c2ccc(N)cc2)c2ccccc21` had a melting point of 96 to 98 °C.

`CCOCc1nc2c(N)nc3cc(OCCCCCCNS(C)(=O)=O)ccc3c2n1CC(C)(C)NC(=O)NC(C)C`: the melting point lay within 190 to 194 °C.

For the compound `CN1CCN(CCCCCCCCCOc2ccc3oc(-c4ccccc4)cc(=O)c3c2)CC1`, the melting point lay within 77 to 80 °C.

`Cc1nn(C)c(/C(OC(=O)C(C)(C)C)=C(\C#N)c2ccc(C(C)(C)C)cc2)c1C` yielded a melting point of 110 °C.
